“Also recorded” adds a separate entry of the source.
Experiments:
SHP2 (residues 224-528) = molecular target: T1, SHP2 (residues 224-528) (Homo sapiens, UniProt Q06124); assay: Kinetic characterization of SHP2 inactivation (pNPP cleavage progress curves, kobs, kinact/KI); type: biochemical
T1 construct: 4× solution of SHP2 (residues 224-528)
T1 sequence (Q06124 224-528): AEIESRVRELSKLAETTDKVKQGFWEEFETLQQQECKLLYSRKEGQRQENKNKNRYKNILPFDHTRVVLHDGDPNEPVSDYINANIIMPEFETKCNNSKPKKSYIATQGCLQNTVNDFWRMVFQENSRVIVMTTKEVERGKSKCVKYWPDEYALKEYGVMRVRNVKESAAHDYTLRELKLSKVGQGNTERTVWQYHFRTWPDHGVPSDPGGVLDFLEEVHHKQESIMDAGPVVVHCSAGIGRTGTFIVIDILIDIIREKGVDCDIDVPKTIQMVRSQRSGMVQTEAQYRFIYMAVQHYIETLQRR
Source text: Covalent inhibitors work by forming a covalent bond with a reactive functional group in the target enzyme. Consequently, the kinetics for enzyme inactivation by a covalent inhibitor is not an equilibrium process as with reversible inhibition. The potency of a reversible inhibitor can be measured by its IC50 value. Unlike reversible inhibitors, where inhibition is only concentration-dependent, covalent inhibitors show both time- and concentration-dependent target inhibition (a covalent bond formation is a time-dependent event). If sufficient time is available, covalent inhibitors can completely neutralize the target, rather than go to equilibrium. As a result, the potency and selectivity of a covalent inhibitor cannot be determined by IC50 values; instead, the rate of inactivation of the target (kinact) and the inhibition constant (KI) were determined. The bimolecular rate constant (kinact/KI), was chosen to rank the potency of covalent inhibitors (Ruddraraju et al., 2017, Molecular Biosystems 13(7), 1257-1279).
PTPs catalyze the dephosphorylation of tyrosine-phosphorylated protein substrates through a conserved mechanism that relies on a catalytic cysteine residue (Zhang, Z.-Y et al., 2003, Prog. Nucleic Acid Research Molecular Biology, 73, 171-220). This provides a mechanistic rationale for the assessment of electrophilic Michael acceptors, such as those synthesized in the present disclosure as potential covalent inhibitors of the SHP2. The enzymatic cleavage of para-nitrophenyl phosphate by SHP2 was measured over time in the presence of 100 μM inhibitor or DMSO, to determine the observed first-order rate constant (kobs). Based on kobs values, compounds were further evaluated in a dose-dependent manner to determine the second-order rate constant (kinact/KI) indicating the overall efficacy of the compounds, which was used to assess the structure-activity relationship (SAR) for the analogs of interest and design additional analogs (see Table 1). […] It has been known that modifications to the electronegativity of substituents proximal to electrophilic centers alter the reactivity of the electrophile.
The efficacy of covalent inhibitors can be broken down into the initial reversible binding of the compounds (KI), and the rate of covalent bond formation and enzyme inactivation (kinact). These two constants can be used individually, or as a ratio to determine the overall efficacy of the inhibitor's efficacy. To investigate the contribution to reversible binding compound (34) was evaluated, which lacks the carbonyl of the Michael acceptor to prevent the formation of a covalent adduct.
Inhibitors were evaluated for their ability to inhibit the reaction catalyzed by SHP2 using para-nitrophenyl phosphate (pNPP) as a substrate at pH 7 and 25° C. A 2× solution of inhibitor was diluted into DMG buffer (50 mM 3,3-dimethylglutarate pH 7.0, 1 mM EDTA, ionic strength adjusted to 150 mM using NaCl) was added to a clear flat-bottom 96-well plate (Corning Costar Assay Plate #9017), and serially diluted 1.5-fold, resulting in 100 μL volumes of varying inhibitor concentrations. To this was added a 4× solution of pNPP (12 mM) in DMG buffer. The reaction was initialized by the addition of a 4× solution of SHP2 (residues 224-528), resulting in a final solution of: inhibitor (100-0 μM), pNPP (3 mM), and SHP2 (100 nM). The plate was then monitored for a change in absorbance ab […] using a CLARIOstar^Plus plate reader (BMG Labetch) over the course of an hour. The resulting progress curves for each inhibitor were imported into Graphpad Prism 9 (GraphPad Software, San Diego, CA (USA)), and a baseline correction analysis was completed for fitting purposes. Each curve was fit to the equation Y=V0×(1−e^−kobs*t)/kobs.^[17.22] The kobs values were then plotted against inhibitor concentrations. If the resulting graph was linear, the kinact/KI value was determined by the slope of that line and the 95% confidence interval (95% CI). […]

SHP2 [1] = molecular target: T2, SHP2 (Homo sapiens, UniProt Q06124); assay: Covalent adduct formation on SHP2 by intact protein LC-MS; type: binding; conditions: 10 μM SHP2, 60 minutes
T2 construct: 4× solution of SHP2 (residues 224-528)
T2 sequence (Q06124 224-528): T1 sequence (Q06124 224-528)
Protocol: To validate covalent modification of SHP2 by the active compounds, adduct formation on SHP2 was measured by intact protein liquid chromatography-mass spectrometry (LC-MS). With intact protein LC-MS, multiply charged states of the protein species can be deconvoluted to achieve the total mass(es). Compounds were incubated with 10 μM SHP2 for 60 minutes before being quenched with acetonitrile for LC-MS analysis by electrospray ionization (ESI) in positive mode. […] (33), and (42) (FIGS. 3A and 3B).
To unfold protein and quench protein-ligand reactivity, 10 μL of treated or untreated 10 μM SHP2 was diluted in 40 μL of 80% (v/v) formic acid initially, followed by 150 μL of LC-MS buffer (50/50 water/acetonitrile with 0.1% formic acid). 20-25 pmol per sample was analyzed by LC/MS (Agilent 1260 Infinity II with a ZORBAX Rapid Resolution High Definition 300 Å Stable Bond C3, 2.1×100 mm, 1.8 μm column) attached to an Agilent 6129 quadrupole mass spectrometer in positive ion mode. The column was held at 45° C. Mobile solution A was 0.1% formic acid in water, and mobile phase B was 0.1% formic acid in acetonitrile. The gradient used was hold at 10% B for 5 min, increase linearly to 80% B for 15 min, and then hold at 80% B for 5 min. The mass data were collected at a range of 600-1500 m/z. Raw data were processed using MestReNova. For all samples, the deconvoluted mass was calculated by taking the m/z range of 730-1100 Da, and deconvoluted mass range from 36500-37200 Da. An abundance threshold of 10% and tolerance of 30 ppm was set for deconvolution. Unreacted SHP2's total deconvoluted mass was 36602±10 Da; for each deconvolution, the highest deconvoluted mass intensity was utilized as the mass pivot point to determine and identify reacted SHP2 adducts. To calculate the percent SHP2 reacted, the relative abundance intensity of reacted SHP2 was divided by the total relative abundance intensities of unreacted and reacted SHP2.

SHP2 [2] = molecular target: T2, SHP2; assay: Active site protection by vanadate (jump-dilution assay); type: biochemical; conditions: role: inhibitor, 10 min, diluted 100-fold into 10 mM pNPP
Protocol: To further support a covalent mechanism of action and engagement of the SHP2 active site, a jump-dilution assay was employed both in the presence and absence of the known reversible PTP active site competitive inhibitor vanadate (VO4) (Seiner, D. R. et al., Chem. Res. Toxicol. 2007, 20, 1315-1320) In this experiment, SHP2 was co-incubated with 100 μM compound (10) and 500 μM vanadate or DMSO for 10 minutes. The enzyme-inhibitor complex was then rapidly diluted 100-fold into a buffered solution containing 10 mM pNPP, and the absorbance at 405 nm was immediately monitored over time to determine the remaining enzymatic activity.
A solution containing 500 μM Vanadate or DMSO, 4 μM SHP2, and 100 μM (10) or DMSO in DMG buffer (with no EDTA) was added to a clear flat-bottom 96-well plate (Corning Costar Assay Plate #9017). This was allowed to incubate for 10 minutes at 25° C. before transferring 3 μL to a new clear flat-bottom 96-well plate (Corning Costar Assay Plate #9017). To each well was added 297 μL of 10.1 mM pNPP in DMG buffer (with EDTA) and the plate Plates were then read for absorbance at 405 nm using a CLARIOstar^Plus plate reader (BMG Labetch). Data was imported into Graphpad Prism 9 (GraphPad Software, San Diego, CA (US)), and a baseline correction analysis was completed for fitting purposes.

Row | SMILES | kinact/KI (SHP2 (residues 224-528); pH 7, role: inhibitor, substrate pNPP 3 mM, 100 nM SHP2, pH 7.0, 25° C, read-out: kinact/KI (converted)) | fold increase in efficacy compared to PVSN (SHP2 (residues 224-528); role: inhibitor, kinact/KI relative to PVSN) | Found Ligand Adduct (mass shift) (SHP2 [1]; intact protein LC-MS) | % SHP2 Reacted (overall adduct formation) (SHP2 [1]; PVSN at 20 μM, compound 37 at 10 μM) | residual SHP2 activity after jump-dilution (SHP2 [2]; 100 μM compound (10) alone) | residual SHP2 activity after jump-dilution with vanadate (SHP2 [2]; 100 μM compound (10) with 500 μM vanadate (competitive inhibitor)) | SHP2 activity recovery after jump-dilution, vanadate alone (SHP2 [2]; 500 μM vanadate, compared to DMSO control)
1 | C=C1C(=O)[C@@]2(C(=O)OC)CC(=O)C[C@@H]1C2 [Compound 10] | 20.5 M⁻¹ s⁻¹ | approximately 6 fold | 206 Da | 34% | negligible residual enzymatic activity; also recorded: Little residual activity was detected | substantial residual activity; also recorded: protected from inactivation | –
2 | [O]=[V]([O-])([O-])[O-] [vanadate, reference compound] | – | – | – | – | – | – | fully recovered activity

Reference: patent US20260327239A1, “COMPOUNDS FOR COVALENT INHIBITION OF SHP2” (Purdue Research Foundation, priority 2023, published 2026)
